# Source: paper PMC12591484 (PLOS One, 2025)
# Assays:
# Assay in all cases: Effects of cysteine modification with pCMBS on Low/High GABA response ratio
# Assay type in all cases: cell-based
# [1] = biological target: T1, α1A291Cβ3γ2L GABAA receptors (Homo sapiens, UniProt P14867+P18507+P28472, A318C)
# T1 construct: expressed in transfected cells; host or cells: Xenopus oocytes injected with capped mRNA, 1α:1β:5γ
# Experimental: (§1) The pCMBS exposure was calculated as concentration × time (e.g. 100 μM × 30 s = 3000 µM × s). […] The pCMBS exposures were varied to generate modification ratio vs. pCMBS exposure curves. Each oocyte was studied at a single pCMBS exposure condition. For each cysteine mutant, 5 oocytes were studied at 4 to 7 pCMBS exposure conditions. The modification ratio vs. pCMBS exposure curves were fit with mono-phasic or bi-phasic logistic equations similar to Eq 1, using non-linear least squares.
# [2] = biological target: T2, α1M236Cβ3γ2L GABAA receptors (Homo sapiens, UniProt P14867+P18507+P28472, M263C); details: post- to pre-modification Low/High GABA response ratio
# T2 construct: expressed in transfected cells; host or cells: Xenopus oocytes injected with capped mRNA, 1α:1β:5γ
# Experimental: as §1
# [3] = biological target: T3, α1S270Cβ3γ2L GABAA receptors (Homo sapiens, UniProt P14867+P18507+P28472, S297C)
# T3 construct: expressed in transfected cells; host or cells: Xenopus oocytes injected with capped mRNA, 1α:1β:5γ
# Experimental: as §1
# [4] = biological target: T4, α1β3L231Cγ2L GABAA receptors (Homo sapiens, UniProt P14867+P18507+P28472, L256C); details: post- to pre-modification Low/High GABA response ratio
# T4 construct: expressed in transfected cells; host or cells: Xenopus oocytes injected with capped mRNA, 1α:1β:5γ
# Experimental: as §1
# [5] = biological target: T5, α1β3M286Cγ2L GABAA receptors (Homo sapiens, UniProt P14867+P18507+P28472, M311C); details: post- to pre-modification Low/High GABA response ratio
# T5 construct: expressed in transfected cells; host or cells: Xenopus oocytes injected with capped mRNA, 1α:1β:5γ
# Experimental: as §1
# [6] = biological target: T6, α1β3γ2I242C GABAA receptors (Homo sapiens, UniProt P14867+P18507+P28472, I281C); details: post- to pre-modification Low/High GABA response ratio
# T6 construct: expressed in transfected cells; host or cells: Xenopus oocytes injected with capped mRNAs mixed 1α:1β:5γ
# Experimental: as §1
# [7] = biological target: T7, α1β3γ2L246C GABAA receptors (Homo sapiens, UniProt P14867+P18507+P28472, L285C); details: post- to pre-modification Low/High GABA response ratio
# T7 construct: expressed in transfected cells; host or cells: Xenopus oocytes injected with capped mRNAs mixed 1α:1β:5γ
# Experimental: as §1
# [8] = biological target: T8, α1β3γ2S301C GABAA receptors (Homo sapiens, UniProt P14867+P18507+P28472, S340C); details: post- to pre-modification Low/High GABA response ratio
# T8 construct: expressed in transfected cells; host or cells: Xenopus oocytes injected with capped mRNAs mixed 1α:1β:5γ
# T8 sequence (P14867 28-456): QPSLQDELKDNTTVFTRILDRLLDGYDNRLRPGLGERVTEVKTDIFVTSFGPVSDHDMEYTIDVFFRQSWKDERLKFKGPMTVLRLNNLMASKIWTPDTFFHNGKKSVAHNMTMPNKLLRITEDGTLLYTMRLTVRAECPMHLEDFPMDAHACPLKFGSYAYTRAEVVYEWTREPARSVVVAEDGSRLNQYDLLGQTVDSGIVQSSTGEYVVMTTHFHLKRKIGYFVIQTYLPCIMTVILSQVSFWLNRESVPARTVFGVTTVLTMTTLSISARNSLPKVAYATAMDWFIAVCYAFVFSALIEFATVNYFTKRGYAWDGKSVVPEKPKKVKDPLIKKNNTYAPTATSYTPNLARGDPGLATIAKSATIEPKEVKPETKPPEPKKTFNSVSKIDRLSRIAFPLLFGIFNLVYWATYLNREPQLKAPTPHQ
# T8 sequence (P28472 26-473): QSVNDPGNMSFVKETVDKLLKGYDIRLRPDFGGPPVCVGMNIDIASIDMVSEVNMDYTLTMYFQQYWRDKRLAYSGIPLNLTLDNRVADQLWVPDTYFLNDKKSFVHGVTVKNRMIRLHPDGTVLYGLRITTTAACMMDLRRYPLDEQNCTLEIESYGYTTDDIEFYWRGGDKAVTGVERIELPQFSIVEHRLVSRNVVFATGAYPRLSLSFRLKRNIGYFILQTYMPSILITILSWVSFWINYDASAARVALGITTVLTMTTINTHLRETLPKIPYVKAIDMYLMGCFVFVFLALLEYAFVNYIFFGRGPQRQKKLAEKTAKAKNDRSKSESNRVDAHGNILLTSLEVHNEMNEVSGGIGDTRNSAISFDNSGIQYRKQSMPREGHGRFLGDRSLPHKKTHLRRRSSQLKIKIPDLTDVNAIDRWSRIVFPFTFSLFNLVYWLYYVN
# T8 sequence (P18507 40-475 S340C): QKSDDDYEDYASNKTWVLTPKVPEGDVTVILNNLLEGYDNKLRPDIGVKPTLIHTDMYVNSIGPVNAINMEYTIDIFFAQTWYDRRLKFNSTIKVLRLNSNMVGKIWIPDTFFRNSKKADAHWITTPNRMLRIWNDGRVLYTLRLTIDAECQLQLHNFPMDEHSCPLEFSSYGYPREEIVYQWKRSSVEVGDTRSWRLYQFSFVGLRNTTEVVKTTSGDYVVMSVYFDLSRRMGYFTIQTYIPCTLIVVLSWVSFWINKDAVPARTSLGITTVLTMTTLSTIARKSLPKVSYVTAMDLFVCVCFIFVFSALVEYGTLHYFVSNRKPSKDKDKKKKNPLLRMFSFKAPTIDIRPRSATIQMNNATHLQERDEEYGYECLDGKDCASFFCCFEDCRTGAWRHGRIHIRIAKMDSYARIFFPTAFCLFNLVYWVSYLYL
# Experimental: as §1
# T1 sequence (P14867 28-456 A318C, one chain of several): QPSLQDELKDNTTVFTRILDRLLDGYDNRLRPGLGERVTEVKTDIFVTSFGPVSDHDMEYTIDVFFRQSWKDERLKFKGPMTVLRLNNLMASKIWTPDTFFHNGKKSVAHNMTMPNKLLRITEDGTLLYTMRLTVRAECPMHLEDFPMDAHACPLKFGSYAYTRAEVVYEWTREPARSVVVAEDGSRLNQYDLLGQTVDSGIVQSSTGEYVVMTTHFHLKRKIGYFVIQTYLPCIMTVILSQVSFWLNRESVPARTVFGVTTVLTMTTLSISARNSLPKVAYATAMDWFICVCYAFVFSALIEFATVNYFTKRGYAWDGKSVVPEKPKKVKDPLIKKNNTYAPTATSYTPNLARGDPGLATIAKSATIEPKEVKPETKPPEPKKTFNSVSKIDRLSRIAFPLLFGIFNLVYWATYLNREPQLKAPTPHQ
# T1 sequence (P18507 40-475, one chain of several): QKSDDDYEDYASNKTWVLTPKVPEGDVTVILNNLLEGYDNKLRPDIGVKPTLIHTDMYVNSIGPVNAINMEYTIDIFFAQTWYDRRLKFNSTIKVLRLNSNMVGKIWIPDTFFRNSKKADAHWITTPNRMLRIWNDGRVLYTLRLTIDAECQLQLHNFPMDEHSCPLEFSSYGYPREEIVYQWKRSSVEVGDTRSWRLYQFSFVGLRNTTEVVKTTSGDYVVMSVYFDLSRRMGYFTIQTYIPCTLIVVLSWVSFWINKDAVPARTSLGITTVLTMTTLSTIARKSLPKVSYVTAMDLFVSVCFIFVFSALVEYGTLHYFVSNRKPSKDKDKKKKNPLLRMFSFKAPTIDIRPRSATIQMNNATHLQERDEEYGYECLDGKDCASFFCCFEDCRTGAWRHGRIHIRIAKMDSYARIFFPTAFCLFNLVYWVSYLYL
# T3 sequence (P14867 28-456 S297C, one chain of several): as the sequence (P14867 28-456 A318C, one chain of several) above, with S270C, C291A counted along it
# T3 sequence (P18507 40-475, one chain of several): as the sequence (P18507 40-475, one chain of several) above
# T2 sequence (P14867 28-456 M263C, one chain of several): as the sequence (P14867 28-456 A318C, one chain of several) above, with M236C, C291A counted along it
# T2 sequence (P18507 40-475, one chain of several): as the sequence (P18507 40-475, one chain of several) above
# T4 sequence (P28472 26-473 L256C, one chain of several): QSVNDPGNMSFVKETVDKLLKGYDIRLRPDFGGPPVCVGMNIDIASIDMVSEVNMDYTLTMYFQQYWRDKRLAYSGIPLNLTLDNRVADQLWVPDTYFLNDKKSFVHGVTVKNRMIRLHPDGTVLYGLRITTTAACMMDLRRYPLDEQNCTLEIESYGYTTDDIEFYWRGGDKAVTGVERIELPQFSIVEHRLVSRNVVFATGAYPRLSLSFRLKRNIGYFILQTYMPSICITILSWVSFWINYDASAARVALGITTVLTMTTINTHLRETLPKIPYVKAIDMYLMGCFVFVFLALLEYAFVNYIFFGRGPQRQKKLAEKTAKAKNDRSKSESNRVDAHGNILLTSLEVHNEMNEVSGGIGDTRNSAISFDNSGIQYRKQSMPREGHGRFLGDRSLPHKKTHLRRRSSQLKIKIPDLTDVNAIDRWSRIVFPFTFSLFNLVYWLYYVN
# T4 sequence (P18507 40-475, one chain of several): as the sequence (P18507 40-475, one chain of several) above
# T5 sequence (P28472 26-473 M311C, one chain of several): as the sequence (P28472 26-473 L256C, one chain of several) above, with C231L, M286C counted along it
# T5 sequence (P18507 40-475, one chain of several): as the sequence (P18507 40-475, one chain of several) above
# T6 sequence (P18507 40-475 I281C, one chain of several): as the sequence (P18507 40-475, one chain of several) above, with I242C counted along it
# T7 sequence (P18507 40-475 L285C, one chain of several): as the sequence (P18507 40-475, one chain of several) above, with L246C counted along it
compound,measurement,setting,value
"O=S(=O)([O-])c1cc[c]([Hg][Cl])cc1.[Na+] [pCMBS, para-chloromercuribenzenesulfonic acid sodium salt]","modification ratio, control modification, single oocyte example (Fig 2A)",[1]; 3 mM GABA + 10 µM pCMBS for 90 s,4.0
same,Maximal pCMBS Modification Ratio Mean ± SD,[1]; post- to pre-modification Low/High GABA response ratio,4.7 ± 0.61
same,Maximal pCMBS Modification Ratio Mean ± SD,[2],13 ± 1.4
same,pCMBS exposure with maximum effect on modification ratio,"[3]; α1S270C, biphasic effect of increasing pCMBS exposure",300 µM x s
same,Maximal pCMBS Modification Ratio Mean ± SD,"[3]; α1S270Cβ3γ2L, post- to pre-modification Low/High GABA response ratio, biphasic",11.8 ± 0.77
same,Maximal pCMBS Modification Ratio Mean ± SD,[4],13 ± 1.3
same,Maximal pCMBS Modification Ratio Mean ± SD,[5],9 ± 3.1
same,Maximal pCMBS Modification Ratio Mean ± SD,[6],17 ± 4.9
same,Maximal pCMBS Modification Ratio Mean ± SD,[7],5 ± 1.0
same,Maximal pCMBS Modification Ratio Mean ± SD,[8],5.3 ± 0.23
